# Experimental data: patent US20250375467A1, “SUSTAINED RELEASE SILICA HYDROGEL COMPOSITES FOR TREATING OPHTHALMOLOGICAL CONDITIONS AND METHODS OF USING SAME” (ASTELLAS US LLC, priority 2022, published 2025)
# Parameters: species or system Dutch belted (DB) rabbit
# Conditions: rabbit, in vivo
# Method: The composite formulation (using formulation #11 CSTR-3) prepared as described in Examples 2 and 3, whose in vitro release profile is shown in FIG. 8A and FIG. 8B, was evaluated for ACP release and tissue exposure following IVT administration in the Dutch belted (DB) rabbit. The study design includes bilateral intravitreal dosing of 1.0 mg oligo equivalent in a 50 μL dosing volume of silica composite PK formulation. Two rabbits (4 eyes) were collected at each of the following time points, day 1, 3, 7, 14, 28, 42, 56, and 84. Eyes were dissected, and vitreous humor, retina, and retinal pigment epithelium (RPE)/choroid were collected for tissue specific bioanalytical analysis employing a qualified dual-hybridization assay. The ocular PK (pharmacokinetics) is summarized in FIG. 9 for liquid formulation administered as an IVT bolus dose for vitreous humor and retina tissues as comparator to the sustained release depot PK formulation. The ocular tissue PK for the PK formulation is provided as solid lines for vitreous humor (top line), retina (middle line) and RPE/choroid (bottom line).
# At study termination (day 84), the remaining PK formulation depot was recovered from the vitreous humor by centrifugation and analyzed for remaining silica by microwave plasma atomic emission spectroscopy (MP-AES) method and avacincaptad pegol content by a qualified HPLC assay method. […]
substance,measurement,value
avacincaptad pegol [ACP],terminal half-life,91.2 h
